Data on 4 compounds can be found in publication PMC7555330, “In Silico Identification and Biological Evaluation of Antioxidant Food Components Endowed with Human Carbonic Anhydrase IX and XII Inhibition” (Antioxidants, 2020).

Read-outs that look alike come from different tables or passages of the source.

Data set [1] concerns the target T1, hCA IX (Homo sapiens, UniProt Q16790).
T1 construct: made in house
As to conditions: literature statement; cited from earlier work.

Data set [2] addresses T2, hCA XII (Homo sapiens, UniProt O43570).
T2 construct: made in house
As to conditions: literature statement; cited from earlier work.

Data set [3] can be described thus: MTT cell viability assay. The class given is cell-based. As to conditions: human, Caco-2 cells; Caco-2, 10 µM, 72 h after treatment, percentage of control. On the procedure:
The human colorectal cancer cells Caco-2 were maintained in Dulbecco’s Modified Eagle Medium (DMEM, Sigma-Aldrich, St. Louis, MO, USA) integrated with 10% of FBS (Fetal Bovine Serum, Sigma-Aldrich, St. Louis, MO, USA) and 1% P/S (Penicillin, Streptomycin, Sigma-Aldrich, St. Louis, MO, USA). Cells’ culture conditions were 5% CO2 incubator at 37 °C. Cell viability was assessed through an MTT assay: 1 × 10^4 cells/well were plated in a 96-well microplate and, two hours later, treated with 6, 12, and 14 (the latter dissolved in DMSO) at 10 µM concentration. After 24, 48, and 72 h, 20 µL of 3-(4,5-dimethylthiazol-2-yl)-2,5 diphenyl tetrazolium (MTT detection reagent, Sigma-Aldrich, St. Louis, MO, USA) was added on the plate at the final concentration of […], and incubated for two more hours. Culture agent was removed and 200 µL of isopropanol (0.04 M HCl) were added to solubilizeformazan crystals. Absorbance was measured at 560 nm by the Victor 3 reader.
A general note: Tetrazolium dyes change colour on reduction, which living cells bring about.

Data set [4] deals with T2, hCA XII. Put plainly: stopped-flow CO2 hydrase assay, hCA XII. The format is biochemical. The following applies: for selectivity index (SI; KI hCA IX/KI hCA XII): hCA XII over hCA IX. Here is the method:
(§1) The CA-catalyzed CO2 hydration activity of the compounds reported was assayed by means of the Applied Photophysics stopped-flow instrument. Phenol red was used as a pH indicator at a concentration of 0.2 mM, the instrument was set at working maximum absorbance maximum of 557 nm, the solutions were buffered at pH 7.5 with 20 mM HEPES, and 20 mM Na2SO4 was added for keeping constant the ionic strength, to follow the initial rates of the enzyme-catalyzed CO2 hydration reaction for a period of 10–100 s. The CO2 concentrations for the determination of the kinetic parameters and inhibition constants ranged from 1.7 to 17 mM.
(§2) The uncatalyzed rates were determined in the same experimental manner and subtracted from the total observed values. Stock solutions of the potential inhibitor (0.1 mM) were prepared by using distilled deionized water, and the dilutions with the assay buffer were prepared up to 0.01 nM. The solutions containing the inhibitor and the enzyme were preincubated for 30 min at r.t. prior to performing the assay, in order to form the E−I adduct. The inhibition constants (KIS) were obtained by the nonlinear least squares methods using PRISM 3 and the Cheng−Prusoff equation, as reported earlier, and represent the mean from three different experimental determinations. All CA isoforms herein reported were recombinant and obtained in-house.

The target of data set [5] is T3, hCA I (Homo sapiens, UniProt P00915).
T3 construct: made in house
Put plainly: stopped-flow CO2 hydrase assay, hCA I. The format is biochemical. On the procedure:
as §1, §2

Data set [6] deals with T1, hCA IX. The data set is described as follows: stopped-flow CO2 hydrase assay, hCA IX. The format is biochemical. The following applies: mean of three assays, errors ±5–10%. Here is the method:
as §1, §2

Data set [7] deals with T4, hCA II (Homo sapiens, UniProt P00918).
T4 construct: made in house
The data set is described as follows: stopped-flow CO2 hydrase assay, hCA II. The class given is biochemical. Here is the method: as §1, §2

The target of data set [8] is T3, hCA I. More on the design: method as in PMID 26498393. The following applies: stopped-flow CO2 hydrase assay; cited from earlier work.
Data set [9] concerns the target T4, hCA II. Details: method as in PMID 26498393. As to conditions: stopped-flow CO2 hydrase assay; cited from earlier work.

T3 sequence (P00915 whole entry): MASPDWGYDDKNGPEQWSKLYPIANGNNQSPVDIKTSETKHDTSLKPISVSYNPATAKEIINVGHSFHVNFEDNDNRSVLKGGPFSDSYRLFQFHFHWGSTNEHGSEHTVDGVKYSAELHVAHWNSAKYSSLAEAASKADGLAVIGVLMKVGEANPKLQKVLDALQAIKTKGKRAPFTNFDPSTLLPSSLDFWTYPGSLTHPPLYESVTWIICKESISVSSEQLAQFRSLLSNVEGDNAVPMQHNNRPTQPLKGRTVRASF
T2 sequence (O43570 25-354): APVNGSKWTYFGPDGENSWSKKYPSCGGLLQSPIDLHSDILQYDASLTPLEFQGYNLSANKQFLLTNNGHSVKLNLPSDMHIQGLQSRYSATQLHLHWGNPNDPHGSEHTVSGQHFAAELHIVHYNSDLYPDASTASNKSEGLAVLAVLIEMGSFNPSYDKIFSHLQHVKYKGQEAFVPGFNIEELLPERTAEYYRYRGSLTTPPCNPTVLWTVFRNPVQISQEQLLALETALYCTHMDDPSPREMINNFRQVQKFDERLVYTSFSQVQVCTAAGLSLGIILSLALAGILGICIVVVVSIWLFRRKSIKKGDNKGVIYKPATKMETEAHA

Consider `COc1ccccc1O` [Guaiacol], for which the “Ki hCA IX” value in data set [1] was “low micromolar range”. Also, the “Ki hCA XII” value in [2] is “low micromolar range”.

The viability is a read-out of living cells in per cent, often relative to untreated cells. A word on the Ki: it is the equilibrium dissociation constant of an inhibitor or competing ligand from its target. Compound `COc1cc([C@@H]2Oc3c(OC)cc(/C=C/CO)cc3[C@H]2CO)ccc1O` [compound 6, (-)-dehydrodiconiferyl alcohol] registered a viability at 72 h, 10 µM in [3] of around 70%. Further, the “selectivity index (SI; KI hCA IX/KI hCA XII)” value in data set [4] turned out to be 27.0 fold. Moreover, the Ki in data set [4] (stopped-flow CO2 hydrase assay, mean of three assays, errors ±5–10%, read-out: KI hCA XII) is 0.096 µM; in data set [5] (stopped-flow CO2 hydrase assay, mean of three assays, errors ±5–10%, read-out: KI hCA I), above 100 µM; in data set [6] it was 2.59 µM; in data set [7] (stopped-flow CO2 hydrase assay, mean of three assays, errors ±5–10%, read-out: KI hCA II), above 100 µM.

`O=C(/C=C/c1ccc(O)c2c1[C@H](C(=O)O)[C@@H](c1ccc(O)c(O)c1)O2)O[C@H](Cc1ccc(O)c(O)c1)C(=O)O` [compound 12, lithospermic acid] came in with a viability at 72 h, 10 µM in [3] of around 50%. Moreover, the Ki in data set [8] and in data set [9] was above 100 µM throughout.

In turn, `COc1cc(/C=C/CO)cc(OC)c1O[C@@H]1O[C@H](CO)[C@@H](O)[C@H](O)[C@H]1O` [compound 14, syringin] registered a viability at 72 h, 10 µM in data set [3] of around 50%. Besides, the Ki in data set [4] was 0.092 µM; in data set [5], above 100 µM; in [6], 0.32 µM; in [7], above 100 µM. The “selectivity index (SI; KI hCA IX/KI hCA XII)” value in data set [4] was determined as 3.5 fold.
